Measured values published in patent US20130023555A1, “KINASE INHIBITOR WITH IMPROVED SOLUBILITY PROFILE” (Abbott Laboratories, priority 2011, published 2013).
pIC50: −log10 of the molar value. ≈ marks a conversion by molar mass, not a printed value.

What was measured:
[1] = target: T1, cKIT (Homo sapiens, UniProt P10721); assay: HTRF in vitro kinase assay, cKIT; format: biochemical; details: 1 mM ATP
T1 construct: GST
Experimental: (§1) To determine the activity of the various kinases, a homogenous time-resolved fluorescence (HTRF) in vitro kinase assay was used. (Mathis, G., HTRF(R) Technology. J Biomol Screen, 1999. 4(6): p. 309-314; Alfred J. Kolb, Paul V. Kaplita, David J. Hayes, Young-Whan Park, Christine Pernell, John S. Major and Gerard Mathis, Drug Discovery Today, 1998, 3, 333-342.)
For example for KDR, cKIT, FLT1, CSF1R and FTL3, purified enzyme was mixed with 0.5 μM N-biotinylated substrate (Biotin-Ahx-[…]-amide (SEQ. ID. 1)), various concentrations of inhibitor in reaction buffer (50 mM HEPES, pH 7.1, 10 mM MgCl2, 2 mM MnCl2, 0.1% BSA and 1 mM DTT, 40 μL final volume), ATP (1 mM final conc.) in a black 384-well plate. After 60 minutes incubation at room temperature, the reaction was quenched by addition of a buffered EDTA solution (final approximate concentrations: 30 mM EDTA, 0.1% BSA, 0.1% Triton X-100 and 0.24M KF) and a solution of revelation agents (to give 0.084 ng/well streptavidin-XL-665 (Cis-Bio) and 6.5 ng/well antiphsophotyrosine mAb PT66-K Europium kryptate) was added to the reaction mixture. The quenched reaction was allowed to stand at room temperature for 3 hours and was then read in a time-resolved fluorescence detector (InVision, Perkin-Elmer) at 620 nm and 665 nm sequentially with excitation. The ratio between the signal of 620 nm and 665 nm was used in the calculation of the IC50.

[2] = target: T2, FLT3 (Homo sapiens, UniProt P36888); assay: HTRF in vitro kinase assay, FLT3; format: biochemical; details: 1 mM ATP
T2 construct: FLT3 Q569- S993; M-His(6) (N)
T2 sequence (P36888 569-993): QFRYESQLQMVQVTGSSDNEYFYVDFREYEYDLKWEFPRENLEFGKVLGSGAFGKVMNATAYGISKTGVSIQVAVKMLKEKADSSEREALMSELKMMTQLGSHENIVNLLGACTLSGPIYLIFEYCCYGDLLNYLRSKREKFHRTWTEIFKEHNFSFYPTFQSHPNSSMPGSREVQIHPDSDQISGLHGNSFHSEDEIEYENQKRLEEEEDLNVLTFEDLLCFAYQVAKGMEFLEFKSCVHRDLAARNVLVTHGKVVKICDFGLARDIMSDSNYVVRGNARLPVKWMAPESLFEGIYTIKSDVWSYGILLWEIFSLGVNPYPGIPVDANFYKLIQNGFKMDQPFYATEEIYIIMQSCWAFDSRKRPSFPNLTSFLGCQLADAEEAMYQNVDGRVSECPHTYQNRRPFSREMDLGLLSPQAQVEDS
Experimental: as §1
For example for KDR, cKIT, FLT1, CSF1R and FTL3, purified enzyme was mixed with 0.5 μM N-biotinylated substrate (Biotin-Ahx-[…]-amide (SEQ. ID. 1)), various concentrations of inhibitor in reaction buffer (50 mM HEPES, pH 7.1, 10 mM MgCl2, 2 mM MnCl2, 0.1% BSA and 1 mM DTT, 40 μL final volume), ATP (1 mM final conc.) in a black 384-well plate. […] The quenched reaction was allowed to stand at room temperature for 3 hours and was then read in a time-resolved fluorescence detector (InVision, Perkin-Elmer) at 620 nm and 665 nm sequentially with excitation. The ratio between the signal of 620 nm and 665 nm was used in the calculation of the IC50.

[3] = CLND Solubility Assay; format: physicochemical
Experimental: Chemiluminescent nitrogen detection (CLND) method oxidized the analyte to nitrogen oxide that reacted with ozone to provide a photon of light and was a measure of how much compound was in solution. Compounds must contain nitrogens for this experiment. Nitrogen impurities present in the compound will cause falsely high results. • 1. Compound concentration tested was 35 μM in 10 mM phosphate buffer, 7.2. • 2. Compounds were tested in triplicate. • 3. Compound concentration was determined by comparing readings to a caffeine standard curve. One standard curve was run before and after every test plate. For 3 test plates, four standard curves were generated.
Experimental Procedure: • 1. 5 μl of 5 mM test compound in DMSO was added to three adjacent wells in a plate. • 2. 695 μl of 10 mM phosphate buffer, pH 7.2, was added to each well. • 3. The plates were sealed. • 4. The plates were allowed to sonicate for 1 hour. • 5. The plates were shook on a plate orbital shaker for up to 6 hours. • 6. The plates were spinned at 5000 rpm (6000×G) overnight. • 7. Standard curves were prepared by adding 5 μl of stock solutions to wells according to Caffeine Concentrations for Standard Curve table below. • 8. Buffer (10 mM phosphate buffer, pH 7.2, 695 μl) was added. • 9. The plates were sealed. • 10. The plates were loaded onto a TOC/CLND. • 11. The results were analyzed after the run was completed.
The solubility was determined by comparing the reading generated by analysis of the sample to the standard curve. The value was then divided by the number of nitrogens contained in the compound. Corrections for impurities during the synthesis were included in the number of nitrogens. The resulting value was the reported solubility.

[4] = Determination of Thermodynamic Solubility; format: physicochemical; details: PEG 300, 25 °C, organic solvent or mixture, thermodynamic from solid, PEG 300, Example 2 at 25° C., Example 1 at ambient temperature, read-out: Solubility (PEG300)
Experimental: Aqueous pH 7.4 and PEG 300 samples were tested at 25° C. Excess amount of the bulk drug was weighed out and mixed with an aliquot of target media in a clear glass vial (n=3/solvent). The vial was capped, wrapped with aluminum foil, and tumbled in a 25° C. water bath. When equilibration was completed, the samples were removed from the water bath and the final pH was measured, if applicable. The samples were centrifuged at 25° C. at 3000 rpm for 20 minutes. The supernatant was filtered through 4 mm 0.45 μm PTFE syringe filters. The filtrate was assayed after appropriate dilution (no dilution required for aqueous samples). The concentration of the sample was calculated against a calibration curve for the compound.
Solubility in pH 7.4 buffer was carried out as described above, except samples were not centrifuged before filtration. All other experimental steps were the same. PEG 300 and PEG 400 solubility were done at ambient temperature. Excess amount of the bulk drug was weighed out and mixed with an aliquot of target media in a clear glass vial with a small stir bar (n=3). The vials were placed on the stirrer at ˜500 rpm and allowed to equilibrate over the weekend. Samples were filtered through 13 mm 0.45 μm GHP syringe filters. The filtrate was assayed after appropriate dilutions, and concentrations determined against a calibration curve for the compound.

T1 sequence (P10721 544-976 limits assumed): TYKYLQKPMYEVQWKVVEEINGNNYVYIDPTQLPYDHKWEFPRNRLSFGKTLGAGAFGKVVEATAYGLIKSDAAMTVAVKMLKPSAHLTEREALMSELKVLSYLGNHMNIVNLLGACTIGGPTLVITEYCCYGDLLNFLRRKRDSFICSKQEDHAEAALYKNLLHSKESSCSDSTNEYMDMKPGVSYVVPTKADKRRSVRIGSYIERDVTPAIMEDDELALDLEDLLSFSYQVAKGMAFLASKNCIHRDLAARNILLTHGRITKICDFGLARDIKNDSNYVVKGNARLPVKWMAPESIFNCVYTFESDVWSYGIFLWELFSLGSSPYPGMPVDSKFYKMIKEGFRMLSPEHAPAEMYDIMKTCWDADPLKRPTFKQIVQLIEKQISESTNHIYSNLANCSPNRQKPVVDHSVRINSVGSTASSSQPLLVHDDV

With CNC(=O)c1cnc(N)c2c(-c3ccc(NC(=O)Nc4cccc(C)c4)cc3)csc12 [Example 2, 4-amino-N-methyl-3-(4-{[(3-methylphenyl)carbamoyl]amino}phenyl)thieno[3,2-c]pyridine-7-carboxamide] the pIC50 [1] was 8.22, the pIC50 [2] was 8.70 and the solubility ([3]; aqueous buffer, kinetic from dmso stock, 35 μM compound in 10 mM phosphate buffer, pH 7.2) was 6.03 µM (≈ 2.6 µg/mL). For the same compound, the “aqueous solubility, in words” value ([3]; comment on Table 5) was “extremely low aqueous solubility” and the solubility [4] was 8400 µg/mL (≈ 19.5 mM).
